Data: BindingDB's records for doi:10.7270/Q2B856KG (Vanderbilt Screening Center For Gpcrs, Ion Channels and …, 2010)

Molecular target: Voltage-dependent T-type calcium channel subunit alpha-1H (Homo sapiens, UniProt O95180)
Experiment: PubChem AID 489005

Sequence of Voltage-dependent T-type calcium channel subunit alpha-1H (O95180 whole entry): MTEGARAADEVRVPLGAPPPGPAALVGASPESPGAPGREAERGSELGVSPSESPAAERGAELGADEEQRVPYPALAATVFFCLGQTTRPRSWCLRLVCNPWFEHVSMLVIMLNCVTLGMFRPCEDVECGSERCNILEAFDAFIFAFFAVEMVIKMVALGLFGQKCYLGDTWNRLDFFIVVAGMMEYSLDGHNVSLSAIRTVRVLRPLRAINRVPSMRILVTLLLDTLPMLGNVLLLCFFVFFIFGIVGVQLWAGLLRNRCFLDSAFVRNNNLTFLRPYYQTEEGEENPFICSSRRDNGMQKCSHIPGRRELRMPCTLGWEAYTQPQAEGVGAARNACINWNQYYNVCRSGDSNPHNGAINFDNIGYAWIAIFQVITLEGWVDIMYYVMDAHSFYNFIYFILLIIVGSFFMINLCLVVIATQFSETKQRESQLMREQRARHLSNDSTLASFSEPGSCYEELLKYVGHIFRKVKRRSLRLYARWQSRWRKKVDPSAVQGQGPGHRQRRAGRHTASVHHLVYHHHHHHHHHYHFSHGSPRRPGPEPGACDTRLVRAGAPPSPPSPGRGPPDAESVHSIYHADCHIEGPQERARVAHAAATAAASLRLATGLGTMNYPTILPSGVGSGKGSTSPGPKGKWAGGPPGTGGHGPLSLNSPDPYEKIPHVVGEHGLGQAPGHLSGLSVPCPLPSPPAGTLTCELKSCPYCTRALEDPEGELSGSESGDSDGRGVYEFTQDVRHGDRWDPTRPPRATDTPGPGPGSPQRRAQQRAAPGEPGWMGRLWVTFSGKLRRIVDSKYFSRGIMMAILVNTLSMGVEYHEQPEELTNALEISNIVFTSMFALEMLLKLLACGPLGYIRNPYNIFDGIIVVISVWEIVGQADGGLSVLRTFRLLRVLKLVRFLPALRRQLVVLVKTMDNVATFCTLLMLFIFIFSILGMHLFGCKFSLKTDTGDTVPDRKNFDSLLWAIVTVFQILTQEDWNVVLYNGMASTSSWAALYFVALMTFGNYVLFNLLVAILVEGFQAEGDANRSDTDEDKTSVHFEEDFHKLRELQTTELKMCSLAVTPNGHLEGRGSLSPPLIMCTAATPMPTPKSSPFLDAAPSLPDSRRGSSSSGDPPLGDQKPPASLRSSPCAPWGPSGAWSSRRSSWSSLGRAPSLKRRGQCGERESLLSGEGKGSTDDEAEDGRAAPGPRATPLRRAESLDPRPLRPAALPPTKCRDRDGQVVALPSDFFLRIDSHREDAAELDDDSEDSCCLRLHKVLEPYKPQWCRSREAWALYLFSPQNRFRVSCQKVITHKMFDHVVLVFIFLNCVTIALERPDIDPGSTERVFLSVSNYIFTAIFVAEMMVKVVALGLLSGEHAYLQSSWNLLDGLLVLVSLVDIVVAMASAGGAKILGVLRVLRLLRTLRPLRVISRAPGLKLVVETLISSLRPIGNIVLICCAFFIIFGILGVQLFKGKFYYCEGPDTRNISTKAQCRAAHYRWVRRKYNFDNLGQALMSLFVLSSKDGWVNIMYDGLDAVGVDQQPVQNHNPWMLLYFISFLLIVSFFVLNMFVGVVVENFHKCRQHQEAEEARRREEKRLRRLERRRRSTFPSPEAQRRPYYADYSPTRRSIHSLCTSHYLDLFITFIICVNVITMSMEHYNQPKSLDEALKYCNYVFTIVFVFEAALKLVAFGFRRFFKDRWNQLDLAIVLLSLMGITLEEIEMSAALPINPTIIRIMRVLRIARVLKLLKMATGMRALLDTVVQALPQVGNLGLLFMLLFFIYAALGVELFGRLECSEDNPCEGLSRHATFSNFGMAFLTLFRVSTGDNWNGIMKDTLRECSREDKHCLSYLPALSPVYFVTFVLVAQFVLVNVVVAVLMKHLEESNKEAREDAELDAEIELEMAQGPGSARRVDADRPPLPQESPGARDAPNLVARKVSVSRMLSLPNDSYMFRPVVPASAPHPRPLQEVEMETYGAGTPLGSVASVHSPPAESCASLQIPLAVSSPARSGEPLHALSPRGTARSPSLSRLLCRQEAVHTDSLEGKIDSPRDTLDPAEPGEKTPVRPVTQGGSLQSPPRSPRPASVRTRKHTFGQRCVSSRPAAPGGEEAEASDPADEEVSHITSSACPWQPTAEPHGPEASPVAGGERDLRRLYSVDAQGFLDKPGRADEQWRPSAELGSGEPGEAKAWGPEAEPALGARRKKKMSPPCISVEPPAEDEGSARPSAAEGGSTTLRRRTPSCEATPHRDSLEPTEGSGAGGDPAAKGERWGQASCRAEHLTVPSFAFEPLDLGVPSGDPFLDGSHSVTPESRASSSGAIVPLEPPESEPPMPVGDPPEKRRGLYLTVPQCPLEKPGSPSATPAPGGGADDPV

| EC50 [µM] | Compound |
| --- | --- |
| 1.52 | CC1CCN(S(=O)(=O)c2ccc(N=NC(C#N)C#N)cc2)CC1 [SMR000162322] |
| 14.8 | CC(C)CC(C(=O)C(C#N)c1nc2ccccc2[nH]1)N1C(=O)c2ccccc2C1=O (stereo unspecified) [MLS000109709] |
| 613 | Oc1cc(SCCc2nc3ccccc3[nH]2)c(O)n1-c1ccc(Cl)cc1 [SMR000199589] |
| 12.3 | O=NC1c2cc(S(=O)(=O)N3CCCCC3)ccc2-c2ccc(S(=O)(=O)N3CCCCC3)cc21 [2,7-Bis-(piperidine-1-sulfonyl)-fluoren-9-one oxime] |
| 1.6 | CCN(CC)S(=O)(=O)c1ccc2c(c1)C(N=O)c1cc(S(=O)(=O)N(CC)CC)ccc1-2 [N2,N2,N7,N7-tetraethyl-9-hydroxyimino-fluorene-2,7-disulfonamide] |
| 3.78 | Cc1ccc(-c2csc(NC(=O)c3cccc(-n4c(O)ccc4O)c3)n2)o1 [SMR000018545] |
| 3 | CCCCCCC1=Cc2c/c(=C3/NN=C(c4ccccc4)O3)c(=O)oc2=CC1=O [MLS000068623] |
| 8.16 | COc1ccc(C(C(=O)C(O)c2c[nH]c3ccccc23)N2CCN(c3ccccc3)CC2)cc1 (stereo unspecified) [MLS000053208] |
| 3.26 | CC(CC(=O)c1ccncc1)=Nc1ccccc1O |
| 2.11 | O=NC(c1ccc(Cl)cc1Cl)c1ncc(C(F)(F)F)cc1Cl (stereo unspecified) [MLS000540015] |
| 6.84 | COc1cccc(N2CCN(c3cc(O)n(-c4ccc(Cl)c(Cl)c4)c3O)CC2)c1 [1-(3,4-dichlorophenyl)-3-[4-(3-methoxyphenyl)-1-piperazinyl]pyrrolidine-2,5-dione] |
